From PubChem BioAssay (NCI)
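Protocol summary: plate cells (96-well), add compound at 5 concentrations, incubate 48 h, interpolate endpoints linearly. TGI is the concentration that stops growth completely.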

What was measured:
Experiment in all cases: DTP human tumour cell line panel, 48 h
[1] = system: A498 renal
[2] = system: KM20L2 colon
[3] = system: A549 NSCLC
[4] = system: NCI-H460 lung
[5] = system: M19-MEL melanoma
[6] = system: DMS 114 small cell lung
[7] = system: SNB-75 CNS
[8] = system: HOP-92 NSCLC
[9] = system: COLO 205 colon
[10] = system: M14 melanoma
[11] = system: HCT-15 colon
[12] = system: SF-295 CNS
[13] = system: HOP-62 NSCLC
[14] = system: IGROV1 ovarian
[15] = system: CAKI-1 renal
[16] = system: RXF 393 renal
[17] = system: SK-OV-3 ovarian
[18] = system: RPMI-8226 leukemia
[19] = system: DLD-1 colon
[20] = system: MOLT-4 leukemia
[21] = system: HT29 colon
[22] = system: HCC-2998 colon
[23] = system: TK-10 renal
[24] = system: OVCAR-8 ovarian
[25] = system: DMS 273 small cell lung
[26] = system: XF 498 CNS
[27] = system: 786-0 renal
[28] = system: EKVX NSCLC
[29] = system: HCT-116 colon
[30] = system: HOP-18 NSCLC
[31] = system: NCI-H226 lung
[32] = system: MALME-3M melanoma
[33] = system: OVCAR-4 ovarian
[34] = system: SNB-19 CNS
[35] = system: KM12 colon
[36] = system: NCI-H23 lung
[37] = system: UACC-257 melanoma
[38] = system: SF-268 CNS
[39] = system: SR leukemia
[40] = system: LXFL 529 NSCLC
[41] = system: NCI-H522 lung
[42] = system: SK-MEL-2 melanoma
[43] = system: OVCAR-3 ovarian
[44] = system: UO-31 renal
[45] = system: SK-MEL-28 melanoma
[46] = system: SN12C renal
[47] = system: SF-539 CNS
[48] = system: SK-MEL-5 melanoma
[49] = system: SW-620 colon
[50] = system: ACHN renal
[51] = system: U251 CNS
[52] = system: UACC-62 melanoma
[53] = system: OVCAR-5 ovarian
[54] = system: SNB-78 CNS
[55] = system: LOX IMVI melanoma

Which TGI [1] does the source give for CSC1N=CNc2c1sc(=S)n2-c1ccccc1 (stereo not given) here?
Its TGI is > 100 µM.

And the TGI [2]?
Its TGI is > 100 µM.

What about the TGI [3] of the same compound?
Its TGI is > 100 µM.

And the TGI [4]?
Its TGI is > 100 µM.

And the TGI [5]?
Its TGI is > 100 µM.

And the TGI [6]?
Its TGI is > 100 µM.

And the TGI [7]?
Its TGI is 84.7 µM.

And the TGI [8]?
The TGI was > 100 µM.

And the TGI [9]?
Its TGI is > 100 µM.

What about the TGI [10] of the same compound?
Its TGI is > 100 µM.

What about the TGI [11] of the same compound?
Its TGI is > 100 µM.

What about the TGI [12] of the same compound?
Its TGI is > 100 µM.

What about the TGI [13] of the same compound?
Its TGI is 74.4 µM.

And the TGI [14]?
The TGI was > 100 µM.

And the TGI [15]?
Its TGI is > 100 µM.

What about the TGI [16] of the same compound?
The TGI was > 100 µM.

What about the TGI [17] of the same compound?
The TGI was > 100 µM.

And the TGI [18]?
The TGI was > 100 µM.

And the TGI [19]?
The TGI was > 100 µM.

What about the TGI [20] of the same compound?
The TGI was > 100 µM.

And the TGI [21]?
The TGI was > 100 µM.

And the TGI [22]?
Its TGI is > 100 µM.

What about the TGI [23] of the same compound?
Its TGI is > 100 µM.

What about the TGI [24] of the same compound?
Its TGI is > 100 µM.

What about the TGI [25] of the same compound?
Its TGI is > 100 µM.

What about the TGI [26] of the same compound?
Its TGI is > 100 µM.

And the TGI [27]?
The TGI was > 100 µM.

And the TGI [28]?
Its TGI is > 100 µM.

And the TGI [29]?
The TGI was > 100 µM.

And the TGI [30]?
Its TGI is > 100 µM.

What about the TGI [31] of the same compound?
The TGI was > 100 µM.

And the TGI [32]?
The TGI was > 100 µM.

And the TGI [33]?
The TGI was > 100 µM.

And the TGI [34]?
The TGI was > 100 µM.

And the TGI [35]?
The TGI was > 100 µM.

And the TGI [36]?
The TGI was > 100 µM.

And the TGI [37]?
Its TGI is > 100 µM.

What about the TGI [38] of the same compound?
The TGI was > 100 µM.

And the TGI [39]?
Its TGI is > 100 µM.

What about the TGI [40] of the same compound?
Its TGI is > 100 µM.

What about the TGI [41] of the same compound?
Its TGI is > 100 µM.

What about the TGI [42] of the same compound?
The TGI was > 100 µM.

And the TGI [43]?
The TGI was > 100 µM.

What about the TGI [44] of the same compound?
The TGI was > 100 µM.

And the TGI [45]?
Its TGI is > 100 µM.

What about the TGI [46] of the same compound?
Its TGI is > 100 µM.

What about the TGI [47] of the same compound?
Its TGI is > 100 µM.

What about the TGI [48] of the same compound?
The TGI was > 100 µM.

And the TGI [49]?
The TGI was > 100 µM.

What about the TGI [50] of the same compound?
Its TGI is > 100 µM.

What about the TGI [51] of the same compound?
The TGI was > 100 µM.

What about the TGI [52] of the same compound?
The TGI was > 100 µM.

What about the TGI [53] of the same compound?
Its TGI is > 100 µM.

What about the TGI [54] of the same compound?
The TGI was > 100 µM.

What about the TGI [55] of the same compound?
Its TGI is > 100 µM.
